We go through one compound from patent US7655670B2 (Janssen Pharmaceutica N.V., priority 2005, dated 2010).

Each structure is given as a SMILES string. A value given as a limit tells only on which side of the number the result lay.

Experiment [1] has as its target human nociceptin receptor (ORL-1) (Homo sapiens, UniProt P41146). The experiment in a line: nociceptin receptor (ORL-1) binding assay, 125I-Tyr14-nociceptin displacement.
The target in experiment [2] is Kappa (κ) opioid receptor (Homo sapiens, UniProt P41145). The experiment in a line: Filtration binding assay, kappa opioid receptor (U69593-H3 ligand). Conditions: 2C2 cell line membrane, U69593-H3 ligand; calculated mean where tested more than once; read-out: Kappa (κ) IC50.
Sequence of Kappa (κ) opioid receptor (P41145 whole entry): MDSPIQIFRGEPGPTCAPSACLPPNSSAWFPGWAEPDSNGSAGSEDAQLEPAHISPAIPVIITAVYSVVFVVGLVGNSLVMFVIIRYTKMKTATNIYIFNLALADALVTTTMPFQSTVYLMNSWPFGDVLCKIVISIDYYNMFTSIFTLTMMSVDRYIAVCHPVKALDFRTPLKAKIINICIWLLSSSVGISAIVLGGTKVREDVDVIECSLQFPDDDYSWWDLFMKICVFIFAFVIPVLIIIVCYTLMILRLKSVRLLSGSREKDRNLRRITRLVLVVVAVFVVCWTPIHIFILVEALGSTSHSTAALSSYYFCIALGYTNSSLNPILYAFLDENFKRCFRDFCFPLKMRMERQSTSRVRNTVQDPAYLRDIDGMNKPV
Experiment [3] deals with T1, ORL-1 receptor (Homo sapiens, UniProt P41146).
T1 construct: expressed in transfected cells; host or cells: HEK-293 over-expressing ORL-1 and Gqi5
T1 sequence (P41146 whole entry): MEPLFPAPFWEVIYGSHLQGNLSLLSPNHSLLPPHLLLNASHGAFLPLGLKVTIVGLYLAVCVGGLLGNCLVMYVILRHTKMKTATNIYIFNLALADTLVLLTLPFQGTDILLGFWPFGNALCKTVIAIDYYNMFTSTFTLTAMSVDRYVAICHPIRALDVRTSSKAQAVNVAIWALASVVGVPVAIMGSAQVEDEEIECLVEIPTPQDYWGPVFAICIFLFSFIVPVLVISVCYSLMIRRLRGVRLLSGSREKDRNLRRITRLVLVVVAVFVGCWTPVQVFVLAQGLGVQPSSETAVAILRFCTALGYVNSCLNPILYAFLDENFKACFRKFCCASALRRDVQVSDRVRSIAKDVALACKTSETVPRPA
The experiment in a line: ORL-1 functional assay (calcium flux, FLIPR). More on the design: key to Inhibitor: a notation of “no” indicates that the compound did not act as an inhibitor; a notation of “yes” indicates that the compound acted as an inhibitor; a notation of “undetermined” indicates that the data did not clearly show whether or not the compound acted as an antagonist. In kind it is cell-based. On the procedure:
To assay the function of a test compound, a HEK-293 cell line that over-expresses the ORL-1 receptor and the Gqi5 G protein (Molecular Devices) were employed. By using a calcium flux assay, agonism and antagonism through the ORL-1 receptor were detectable.
The HEK-293 cells were plated two days prior to assay. For assay, cells in 50 μl of medium were incubated with 50 μl of dye (Molecular Devices) for 1 hour at 37° C. 100 μl of test compound diluted in Hank's Buffered Salt Solution (HBSS) at 2-fold the indicated final concentration was added and time points taken every 1 second for 1 minute and every 3 seconds for an additional 1 minute using FLIPR384 (Molecular Devices). 50 μl of nociceptin (Neosystems, SA) at 5-fold the indicated final concentration was then added and additional time points were recorded every 1 second for 1 minute and every 3 seconds for an additional 1 minute.
The resulting data were processed using Microsoft Excel 6.0 and EC50 values were determined using GraphPad Prism 3.0. For agonists, the EC50 was determined from the initial calcium signal obtained after addition of the test compound. For compounds that behaved as antagonists, the percent inhibition or IC50 of the signal resulting from the subsequent addition of the nociceptin peptide was calculated.
A general note: Calcium flux is commonly read through the fluorescence of an indicator in the cells.

Experiment [4] concerns the target Delta (δ) opioid receptor (Homo sapiens, UniProt P41143). Briefly: Filtration binding assay, delta opioid receptor (DPDPE-H3 ligand).
Experiment [5] concerns the target Mu (μ) opioid receptor (Homo sapiens, UniProt P35372). The experiment in a line: Filtration binding assay, mu opioid receptor (Damgo-H3 ligand). The following applies: 1 D4 cell line membrane, Damgo-H3 ligand; calculated mean where tested more than once; read-out: Mu (μ) IC50.

Sequence of Delta (δ) opioid receptor (P41143 whole entry): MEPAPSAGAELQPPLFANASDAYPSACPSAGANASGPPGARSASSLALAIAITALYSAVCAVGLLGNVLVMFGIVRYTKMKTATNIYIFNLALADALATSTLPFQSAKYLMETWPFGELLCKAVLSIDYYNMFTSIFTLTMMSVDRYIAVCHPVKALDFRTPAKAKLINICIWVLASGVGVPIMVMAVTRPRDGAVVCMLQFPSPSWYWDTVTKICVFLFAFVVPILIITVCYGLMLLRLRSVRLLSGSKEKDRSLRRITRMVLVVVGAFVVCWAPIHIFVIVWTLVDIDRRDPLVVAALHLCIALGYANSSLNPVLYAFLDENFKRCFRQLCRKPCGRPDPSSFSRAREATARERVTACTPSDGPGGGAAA
Sequence of human nociceptin receptor (ORL-1) (P41146 whole entry): as the sequence (P41146 whole entry) above
Sequence of Mu (μ) opioid receptor (P35372 whole entry): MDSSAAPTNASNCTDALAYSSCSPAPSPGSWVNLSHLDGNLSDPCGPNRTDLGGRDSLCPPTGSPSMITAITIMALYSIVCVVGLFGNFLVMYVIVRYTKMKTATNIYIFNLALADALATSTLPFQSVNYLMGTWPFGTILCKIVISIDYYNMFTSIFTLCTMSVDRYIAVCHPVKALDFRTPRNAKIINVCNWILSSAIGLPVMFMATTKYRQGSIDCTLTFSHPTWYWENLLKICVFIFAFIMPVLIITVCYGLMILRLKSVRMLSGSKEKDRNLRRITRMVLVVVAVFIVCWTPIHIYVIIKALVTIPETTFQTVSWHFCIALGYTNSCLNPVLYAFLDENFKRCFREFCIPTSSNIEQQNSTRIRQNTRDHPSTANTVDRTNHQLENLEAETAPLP

By IC50 is commonly meant the midpoint of a concentration-inhibition curve. As to `CN1C(=O)C2(CCN(CC3CCCCCCC3)CC2)c2cc(F)ccc21` [Compound 9, 1-methyl-5-(cyclooctyl-methyl)-9-fluoro-spiro[indoline-3,4′-piperidin]-2-one], the IC50 in experiment [1] is 23 nM; in experiment [2], 250 nM; in experiment [4] it was > 10000 nM; in experiment [5] it was 1010 nM. Also, the Inhibitor entry in experiment [3] (HEK-293 cells over-expressing ORL-1 receptor and Gqi5 G protein, calcium flux) is listed as “undetermined”. Further, the “% Inhibition (100 nM Nociceptin)” value in experiment [3] (inhibition of calcium signal from 100 nM nociceptin, HEK-293 cells with ORL-1 and Gqi5) stood at 41 ± 26%.
